Experimental data reported in a melting point compilation (Tetko et al.; mined from patent text by program, amines drawn as free bases though some values may be those of a salt).

Compound	melting point
COc1ccc(-c2ccc(Cl)nn2)c(OCC2CO2)c1 (stereo unspecified)	111 to 112 °C
NC(=O)C(c1ccccc1)(c1ccccc1)[C@@H]1CCNC1	128 to 132 °C
CO[C@@H]1CCN2C(=O)N(c3ccc(C#N)c4ccccc34)C(=O)[C@H]12 (relative stereo)	185 to 186 °C
Cc1nc(Cl)c2c(n1)N(c1c(C)cc(Br)cc1C)C(=O)C2C (stereo unspecified)	148 to 150 °C
CCCCCCCCCCCCCCCCCC(=O)c1ccc(O)c(C(=O)OC(C)C)c1	72 to 73 °C
O=c1[nH]c2cc(Cl)cc(Cl)c2oc1=O	312 °C
O=C1CC(=C[N+](=O)[O-])Nc2ccc(Cl)cc2N1c1ccccc1	248 to 251 °C
CNC(=O)C1CCNc2ccccc21 (stereo unspecified)	107 °C
Fc1cccc(Cl)c1-c1c(Cl)cc(Cl)nc1Cl	210 °C
COC(=O)C=C1NCCOC1=O	76 to 79 °C
CCOC(=O)c1cc([N+](=O)[O-])c2ccccn2c1=O	169 to 170 °C
O=C1c2ccccc2-n2cnc(-c3noc(CCl)n3)c2[C@@H]2CCN12	205 to 207 °C
Cc1sc(C(N)=O)c2c1-c1c(cnn1CC(F)(F)F)CC2	144 to 145 °C
CN(C)C(=O)C(C)(C)c1cc(C#N)ccc1O	146 to 148 °C
CCc1c(C(=O)C(N)=O)c2c([N+](=O)[O-])cccc2n1Cc1ccccc1	207 to 208 °C
FC(F)(F)c1cccc2c1[nH]c1c2ccc2cc[nH]c21	> 250 °C
COC(=O)c1cccc(NC(=O)C(C)CSC(C)=O)n1 (stereo unspecified)	75 to 77 °C
CC(=O)Nc1cccc2c1C(=O)OC2=O	180 to 183 °C
c1ccc2c(c1)C[C@H]1CSC(=Nc3cnccn3)N1C2	140 °C
CCCCCCOCCCCCCCCCCCSCCCO	27 to 29 °C
CC(C(=O)NC1CCCCC1)N1CCN(c2ccccn2)CC1 (stereo unspecified)	126 to 128 °C
C#CCC(Oc1cccc(C)c1C)C1=NCCN1 (stereo unspecified)	70 to 73 °C
Cc1cc(CC(C)NCCC(c2ccccc2)c2ccccc2)ccc1O (stereo unspecified)	115 to 118 °C
CCCCCCCCCCCCCCCc1ccc(C=O)c(O)c1	50 to 54 °C
COc1cc2c(=O)n(CCN3CCCCC3)c3c4cc5c(cc4nnc3c2cc1OC)OCO5	294 to 295 °C
CC(C)N(C(C)C)S(=O)(=O)NC(=O)c1nsc2ccc(-n3c(=O)cc(C(F)(F)F)n(C)c3=O)cc12	214 °C
COc1c(C(N)=O)nnn1Cc1ccccc1Cl	185 to 187 °C

Compound	melting point
CCOC(=O)NNc1nc2ccccc2n2cnc(C(=O)OCC)c12	126 to 128 °C
CCCCc1ncc(/C=C(\Cc2cccs2)c2nnn[nH]2)n1Cc1cccc(Cl)c1Cl	204 to 205 °C
CO[C@@H]1CNCC[C@@H]1NC(=O)c1cc(Cl)c(N)c2c1OC(C)(C)C2 (relative stereo)	179 °C
O=[N+]([O-])c1ccc2c(c1)CCCCN2	73 to 75 °C
NC(c1ccncc1)C1CCN(C2CCC(O)(CC(=O)O)CC2)CC1 (stereo unspecified)	266 °C
CCCCCC1CCC(CCc2ccc(-c3ncc(O)cn3)c(F)c2F)CC1 (stereo unspecified)	157 °C
FC(F)(F)C1(c2cc(Cl)cc(Cl)c2)CC(c2ccc(-c3cn[nH]c3)c3ccccc23)=NO1 (stereo unspecified)	117 to 120 °C
CCn1c(C(C#N)c2cc(C)cc(C#N)c2)c(C(C)C)c(=O)[nH]c1=O (stereo unspecified)	260 to 261 °C
OCCSc1ccc2cc(SCCO)ccc2c1	113 to 117 °C
Fc1ccccc1-c1ncn(CCCCN2CCOCC2)c1-c1ccncc1	103 to 104 °C
O=C(CCCCCNC(=O)C/C=C/c1ccccc1)NO	127 to 128 °C
Cc1nc(N2CCc3nc(C)sc3CC2)c([N+](=O)[O-])c(=O)[nH]1	> 200 °C
Cc1nnc(S(=O)c2c(C)cccc2C)o1 (stereo unspecified)	79 to 80 °C
Cc1c(N2C[C@@H]3[C@@H](O)CCN3C2=O)ccc(C#N)c1Cl	148 to 149 °C
Nc1ccc(CP2(=O)OCCCO2)cc1	172 to 173 °C
CC(C)(C)OC(=O)N1CCCN(c2ccc(N)cc2C#N)CC1	38 °C
CCCOc1c2nc(C(=O)OC)cc(O)c2cc2c(O)cc(C(=O)OC)nc12	245 to 247 °C
NC(=S)NNc1ccc(Cl)cc1	200 to 201 °C
Cn1c(S(C)(=O)=O)nc2ccccc21	131 to 132 °C
COc1cccn2c(=O)c(CCOS(C)(=O)=O)c(C)nc12	180 °C
CCOC(=O)c1cc2c3n(ccc-2n1)CC(CO)=N3	227 to 229 °C
C=Cc1ccc(CN2C(=O)c3ccccc3C2=O)c(Cl)c1	141 to 143 °C
CCCCCCCCCCNC(=O)c1cccc(N)c1	56 to 58 °C
CCOC(=O)c1c(C(F)(F)F)nc(C(F)F)c(C#N)c1CC	38 to 40 °C
Cc1ncccc1Oc1ccc(N)cn1	95 to 100 °C
O=c1oc2ccccc2nc1-c1cc(O)c(O)c([N+](=O)[O-])c1	120 °C

Next, values leading:

melting point	Compound
157 to 160 °C	COc1ccc2c(=O)c(-c3ccc(C)cc3)c(SCc3ccncc3)oc2c1
180 to 183 °C	CC(=O)C(Cl)=NNc1ccc([N+](=O)[O-])cc1
131 to 132 °C	CC(C)(C)OC(=O)CNC(=S)Nc1cccc(C#N)c1
326 to 328 °C	O=C(Nc1ccc(-c2ncc(-c3ccc(NC(=O)C4CCCCCC4)cc3)[nH]2)cc1)c1cccnc1
150 to 153 °C	CC(=O)N1C(C(=O)O)CSC1C(C)c1ccc(CC(C)C)cc1 (stereo unspecified)
129 to 130 °C	Cn1ccc(C(=O)O)c(OCc2ccccc2)c1=O
70 to 71 °C	COC(=O)C1CCc2onc(-c3ccc(Cl)cc3)c2CC1 (stereo unspecified)
173 °C	CN1CCN(CC(=O)Nc2ccc3c(c2)C(=O)c2cc(NC(=O)CN4CCN(C)CC4)ccc2C3=O)CC1
200 to 201 °C	O=C(O)C1c2ccccc2COc2ccccc21 (stereo unspecified)
168 to 170 °C	CC(C)(C)C(=O)Nc1c(F)cc(F)cc1Oc1ccc(C(C)(C)C(=O)O)cc1
216 °C	O=C(Nc1cc(S(=O)(=O)N(CCO)CCO)sc1Cl)c1cnn2c(C(F)F)cc(-c3ccc(C(F)(F)F)cc3)nc12
128 °C	CCCC1=C(C(=O)OCC)C(c2ccccc2OCc2ccccc2)c2c[nH]nc2N1 (stereo unspecified)
133 to 134 °C	CC(C)(C)OC(=O)N[C@H](Cc1ccccc1)C(=O)NCC(=O)OCc1ccccc1
61 to 62 °C	CCOC(=O)C(=CNc1ccc(F)c(F)c1OCC(C)OS(=O)(=O)c1ccc(C)cc1)C(=O)OCC (stereo unspecified)
195 to 196 °C	O=c1[nH]c2ccccc2n1CCN1CCC(C(c2ccccc2)c2ccccc2)CC1
123 to 124 °C	COC(=O)C(NC(=O)OC(C)(C)C)c1ccc(CC(=O)O)cc1 (stereo unspecified)
87 to 89 °C	CCCCC(NS(=O)(=O)c1ccc(Cl)cc1)C(=S)Nc1ccc(CCC(=O)OC)cc1 (racemic)
270 °C	O=C1c2ccc(O)cc2C(=O)N1c1cccc(O)c1
163 to 165 °C	CCC1(CC(=O)O)OCCc2c1[nH]c1ccc(OCc3ccccc3)cc21 (stereo unspecified)
169 to 171 °C	COc1ccc(C2=NN(C3CCN(C(=O)CCCOc4ccc5[nH]c(=O)ccc5c4)CC3)C(=O)CC2)cc1OC
173 to 177 °C	CCCCCCN(C)c1ccc(C=C2SC(=S)N(CC(=O)NS(=O)(=O)c3ccccc3)C2=O)cc1
124 to 127 °C	CC(C)(C)n1ncc(NCCN2CCNC(c3cccc(C(F)(F)F)c3)C2)c(Cl)c1=O (stereo unspecified)
178 °C	CC1(C)COC(c2ccc(N)c(N)c2)(c2cccs2)OC1
142 to 145 °C	CCOC(=O)Cc1nn(Cc2ccc(Br)c(Cl)c2)c(=O)c2ccccc12

melting point	Compound
236 to 240 °C	Cc1cnc2c(NC(=O)c3c(Cl)cccc3Cl)ccc(C)c2c1Cl
232 °C	O=C(Nc1ncc(C(F)(F)F)o1)C1c2cc(F)ccc2Oc2ccc(F)cc21
> 250 °C	O=Cc1c[nH]c2c1ccc1c3cc(-c4ccc(C(F)(F)F)cc4)ccc3[nH]c12
238 to 240 °C	O=C(O)C[C@H]1CCCC[C@H]1n1nc(-c2c(-c3ccccc3)nn3ccccc23)ccc1=O (relative stereo)
125 to 127 °C	Cc1ccc(C(=O)COc2ccc(Br)cc2CO)cc1
119 °C	N#CCc1ccccc1CCNC(=O)c1ccc([N+](=O)[O-])cc1
200 to 206 °C	Cc1ccc2c(c1)-c1nn(-c3ccc(Cl)cc3)c(=O)cc1CS2
133 to 137 °C	COC(=O)c1cc(SC(F)(F)F)c(-c2ccc(Cl)cc2)[nH]1
109 to 110 °C	N[C@@H](Cc1ccc(Cl)c(OC(F)(F)C(F)F)c1)[C@H](O)c1ccc(F)cc1 (racemic)
143 to 146 °C	CC1(C)CCC(C)(C)c2cc(N(Cc3ccc(F)cc3)C(=O)Nc3ccc(C(=O)O)cc3)ccc21
179 to 181 °C	COC(=O)NC1(C)CN(C(=O)Nc2ccc(C(F)(F)F)cc2)N=C1c1ccc(Cl)cc1 (stereo unspecified)
205 to 206 °C	CC(=O)NC1Cc2cccc3cccc(c23)C1O (stereo unspecified)
253 to 255 °C	O=C1CCC(N2C(=O)c3ccc(CNC(=O)c4ccc(Cl)c(Cl)c4)cc3C2=O)C(=O)N1 (stereo unspecified)
151 to 153 °C	CN1CCC(CNC(=O)c2ccc(-c3[nH]nc4c3C(=O)c3c(NC(=O)NN5CCOCC5)cccc3-4)s2)C1 (stereo unspecified)
143 to 145 °C	CC(C)N1CCN(c2ccc(OCCCCCCC(O)(Cn3ccnc3)c3ccc(Cl)cc3Cl)cc2)CC1 (stereo unspecified)
229 to 231 °C	NC(=O)c1cc2cccc(N(CC3CC3)S(=O)(=O)c3cccs3)c2[nH]1
188 to 191 °C	Cc1cnc(NCCc2ccccn2)c(=O)n1NC(=O)CCc1cc(Cl)ccc1Cl
205 to 206 °C	CC(C)(C(=O)O)c1cn2nc(NCCCN3CCC(OC(c4ccccc4)c4ccccc4)CC3)ccc2n1
154 to 156 °C	CC(C)C(=O)c1ccc2cc(O)c(O)cc2c1
190 to 192 °C	COc1ccc(P2(=O)c3ccccc3CN2c2ccccc2)cc1 (stereo unspecified)
355 to 357 °C	O=C(O)c1cccc2c(=O)c3cc(I)ccc3[nH]c12
130 to 132 °C	CCCCOCCOc1ccc(-c2ccc(N3CCC4(C3)OCCO4)c(C=C(C)C(=O)O)c2)cc1
106 to 108 °C	COC(=O)C(C)c1ccc(-c2ccccc2)c(O)c1 (stereo unspecified)
116 to 117 °C	C[C@@H](n1cnn(-c2ccc(OCC(F)(F)C(F)F)cc2)c1=O)[C@@]1(c2ccc(F)cc2F)CO1
